From ChEMBL document CHEMBL2163302, “Allyl m-trifluoromethyldiazirine mephobarbital: an unusually potent enantioselective and photoreactive barbiturate general anesthetic” (J Med Chem, 2012)
≈ marks a conversion by molar mass, not a printed value.

Experiments:
Xenopus laevis = assay: Anesthetic activity in Xenopus laevis tadpoles assessed as loss of righting reflexes; assay type: functional, organism-based; conditions: Tadpole
[1] = target: T1, Gamma-aminobutyric acid receptor subunit beta-3 (Homo sapiens) (UniProt P28472); conditions: HEK293S, 200 uM
T1 sequence (whole entry): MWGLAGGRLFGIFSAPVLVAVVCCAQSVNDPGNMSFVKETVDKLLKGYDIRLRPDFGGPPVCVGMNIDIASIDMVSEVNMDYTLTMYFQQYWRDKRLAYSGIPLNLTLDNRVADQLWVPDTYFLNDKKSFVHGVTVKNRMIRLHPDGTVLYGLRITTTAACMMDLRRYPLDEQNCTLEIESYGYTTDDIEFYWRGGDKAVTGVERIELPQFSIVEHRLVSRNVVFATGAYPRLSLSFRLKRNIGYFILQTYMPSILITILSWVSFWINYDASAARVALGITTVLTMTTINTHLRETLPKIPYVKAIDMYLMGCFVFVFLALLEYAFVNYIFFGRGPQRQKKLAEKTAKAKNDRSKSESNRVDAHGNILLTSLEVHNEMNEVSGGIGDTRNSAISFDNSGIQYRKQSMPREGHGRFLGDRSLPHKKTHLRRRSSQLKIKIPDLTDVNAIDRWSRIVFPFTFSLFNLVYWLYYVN

[2] = target: T2, Gamma-aminobutyric acid receptor subunit alpha-1 (Homo sapiens) (UniProt P14867); conditions: HEK293S, 200 uM
T2 sequence (whole entry): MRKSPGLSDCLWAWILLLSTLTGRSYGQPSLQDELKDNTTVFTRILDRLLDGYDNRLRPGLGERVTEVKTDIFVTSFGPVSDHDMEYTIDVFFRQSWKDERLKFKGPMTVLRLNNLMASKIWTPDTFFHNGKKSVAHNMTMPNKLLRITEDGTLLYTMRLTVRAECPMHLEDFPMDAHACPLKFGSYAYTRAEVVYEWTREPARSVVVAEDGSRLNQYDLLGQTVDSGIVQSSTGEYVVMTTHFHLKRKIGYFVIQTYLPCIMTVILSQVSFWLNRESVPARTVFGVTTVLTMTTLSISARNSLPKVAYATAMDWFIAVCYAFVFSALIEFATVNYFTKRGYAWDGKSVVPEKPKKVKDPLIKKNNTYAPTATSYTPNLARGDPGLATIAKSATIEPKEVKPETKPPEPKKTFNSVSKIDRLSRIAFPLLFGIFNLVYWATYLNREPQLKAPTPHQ

[3] = target: GABA-A receptor; alpha-1/beta-2/gamma-2 (Homo sapiens) (UniProt P14867+P47870+P18507); conditions: Oocyte, 80 uM
[4] = Stability in 0.01 M Tris/HCl buffer at pH 7.4 at 4 degC days by HPLC; assay type: physicochemical
[5] = Aqueous solubility in 0.01 M Tris/HCl buffer at pH 7.4 by HPLC; assay type: physicochemical
[6] = target: T3, Gamma-aminobutyric acid receptor subunit beta-3 (Homo sapiens, UniProt P28472); assay: biochemical
T3 sequence (P28472 whole entry): T1 sequence (whole entry)

C=CC[C@@]1(c2cccc(C3(C(F)(F)F)N=N3)c2)C(=O)NC(=O)N(C)C1=O
EC50 (Xenopus laevis): 3.7 µM | inhibition [1]: > 90% | inhibition [2]: > 90%

C=CC[C@]1(c2cccc(C3(C(F)(F)F)N=N3)c2)C(=O)NC(=O)N(C)C1=O
EC50 (Xenopus laevis): 38 µM | inhibition [3]: 40%

C=CCC1(c2cccc(C3(C(F)(F)F)N=N3)c2)C(=O)NC(=O)N(C)C1=O (racemic)
Stability [4]: 2.5 days | solubility ([5]; buffer): 80 µM (≈ 29.3 µg/mL)

CCC1(c2ccccc2)C(=O)NC(=O)N(C)C1=O (stereo not given) [MEPHOBARBITAL]
solubility ([5]; 0.01 M Tris/HCl buffer, read-out: solubility): 600 µM (≈ 148 µg/mL)

CCCC(C)C1(CC)C(=O)NC(=O)NC1=O (stereo not given) [PENTOBARBITAL]
EC50 (Xenopus laevis): 65 µM | IC50 [6]: 88 µM
